Reference: patent US10576086B2, “Triazine derivatives as interferon-gamma inhibitors” (University of Greenwich, priority 2015, dated 2020)

Test system: IFN-γ production in human peripheral blood mononuclear cells (PBMCs)
Assay: Experiment 2: IFN-γ production by PHA-stimulated human PBMCs, ELISA
Type: cell-based
Conditions: for [IFN-γ]: PHA 5 μg/ml
Protocol: A similar set of tests were carried out, in which three compounds known as CEN-079(3,5-diamino-6-[2-(3,4,5-trichlorothienyl)]-1,2,4-triazine), CEN-092(3,5-diamino-6-(3,5-bistrifluoromethylphenyl)-1,2,4-triazine) and CEN-216(3,5-diamino-6-(2,3-dichlorophenyl)-2,3(2,5)-dihydro-3(5)-imino-2-(2,2,2-trichloroethyl)-1,2,4-triazine) were compared with lamotrigine. CEN-079, CEN-092 and CEN-216 are within the scope of Formulae 1, 2 and 3.
50 ml of blood from three healthy adult donors was collected by venepuncture in heparinised tubes. The blood samples where centrifuged at 3000 rpm for 15 minutes. The supernatant plasma was collected in a centrifuge tube, and centrifuged at 3000 rpm for a further 10 minutes. The supernatant was then collected in a plain tube, and stored at −70° C. for future use.
The cells from the first centrifuged heparinised tube were diluted 1:1 in RPMI-1640, and mixed by multiple inversions. The cell mixture was then slowly layered, using a sterile plastic 3 ml pipette, along a tube wall containing lymphoprep (Nycomed) at a ratio of 2:1 cells/RPMI-1640:Lymphoprep in a 25 ml universal tube. The mixture was centrifuged at 2400 rpm for 30 minutes, and left to stand for 20 minutes. PBMCs were slowly removed from the interface using a sterile plastic pipette, and collected in a 15 ml centrifuge tube.
The cells were washed twice by diluting in RPMI-1640 with 2 mM L-glutamine, 100 U/ml penicillin and 100 μg/ml streptomycin at a ratio of 1:1. The mixture was centrifuged at 3000 rpm for 15 minutes, and the supernatant decanted. PBMCs were then diluted in RPMI-1640 containing 2 mM L-glutamine, 100 U/ml penicillin and 100 μg streptomycin, to make up a volume of 6 ml for subjects 1 and 2, and 9 ml for subject 3.
Cells were counted using an Improved Neubauer haemocytometer (Hawksley, UK) on a light microscope. 10 μl of cell suspension was loaded onto the haemocytometer using a sterile plastic pipette. Cells were counted in five out of 25 1 mm squares, from which the total cell count was calculated.
5 μg/ml PHA was used as a T cell activating agent for the production of IFN-γ. The PBMCs were treated with the four test compounds (lamotrigine, CEN-079, CEN-092, CEN-216) at concentrations of 10 μM, 30 μM and 300 μM to assess their effects on IFN-γ production by the stimulated T cells.
The tests were carried out as for Experiment 1, in which 2×10^6 PBMC/ml, 25 μl of 5% autologous plasma, and 2.63 μl of 5 μg/ml PHA were used. Test compound at each concentration was then added, except for one control case.
10 μM solutions were obtained by adding 1.05 μl of a 5 mM solution of the compounds to the above PBMC-containing solution. 30 μM solutions were obtained by adding 3.15 μl of the 5 mM solution of the compounds. 300 μM solutions were obtained by adding […] solutions of the compounds.
The tubes were covered, gently shaken to mix the contents, and incubated for 24 hours at 37° C. The tubes were then centrifuged at 2500 rpm for 10 minutes. The supernatant was collected in a 3 ml plastic pipette, and aliquots were stored at −70° C. before being analysed.
The test was performed according to the supplier's instructions. Donor samples were diluted 1:1 in phosphate buffered […] (PBS) and assayed simultaneously with IFN-γ standard samples, in duplicate. The standard curve ranged from 15.6 pg/ml to 1000 pg/ml.
A 96-well multiwell microplate (high binding Costar) was prepared, by diluting a capture antibody (720 μg/ml of mouse anti-human IFN-γ) in PBS to a working concentration of 4.0 μg/ml. 100 μl was immediately coated on each well, and left overnight at room temperature. The wells were washed three times in wash buffer, using microplate autowasher (LT-3000, LabTech International Ltd). The remainder of the wash buffer in the wells was removed by blotting on to clean paper towels. The plate was blocked by adding 300 μl Block buffer (1% BSA in PBS) to each well and incubated at room temperature for 1 hour. […]

Compound: Nc1nnc(-c2cccc(Cl)c2Cl)c(N)n1 [Lamotrigine, 3,5-diamino-6-(2,3-dichlorophenyl)-1,2,4-triazine]
- [IFN-γ] vs control (10 μM, Subject 1, 24 h): 104.7%
- [IFN-γ] (10 μM, Subject 1, 24 h): 732 pg/mL
- [IFN-γ] vs control (10 μM, Subject 2, 24 h): 78.6%
- [IFN-γ] (10 μM, Subject 2, 24 h): 1591.5 pg/mL
- [IFN-γ] vs control (10 μM, Subject 3, 24 h): 74.8%
- [IFN-γ] (10 μM, Subject 3, 24 h): 1590.0 pg/mL
- [IFN-γ] vs control (30 μM, Subject 1, 24 h): 65%
- [IFN-γ] (30 μM, Subject 1, 24 h): 454 pg/mL
- [IFN-γ] vs control (30 μM, Subject 2, 24 h): 69.1%
- [IFN-γ] (30 μM, Subject 2, 24 h): 1400.5 pg/mL
- [IFN-γ] vs control (30 μM, Subject 3, 24 h): 39.2%
- [IFN-γ] (30 μM, Subject 3, 24 h): 833.0 pg/mL
- [IFN-γ] vs control (300 μM, Subject 1, 24 h): 8.5%
- [IFN-γ] (300 μM, Subject 1, 24 h): 59.5 pg/mL
- [IFN-γ] vs control (300 μM, Subject 2, 24 h): 10.6%
- [IFN-γ] (300 μM, Subject 2, 24 h): 215.0 pg/mL
- [IFN-γ] vs control (300 μM, Subject 3, 24 h): 8.7%
- [IFN-γ] (300 μM, Subject 3, 24 h): 186.0 pg/mL
- inhibition of IFN-γ production in PBMCs (in words) (Experiment 2, human PBMCs): shown to be an inhibitor of IFN-γ production in PBMCs
- IC50 (PBMC, human PBMCs, PHA-stimulated, read-out: IC50 (concentration to inhibit IFN-γ production by 50%)): 43 µM
